Data set [1] relates to CXXC5-DVL interaction. Nature of the data set: In vitro CXXC5-DVL PPI inhibition (binding) assay, library screening. The settings on record: compound 30 μM; FITC-tagged PTD-DBMP and DVL-PDZ domain; fluorescence intensity. As for the experimental part: Screening for compounds that inhibit the CXXC5-DVL interaction. […] CELL. DEATH. DIFFER. […] Briefly, 5 mg/ml purified DVL-PDZ domain was incubated in each well of a 96-well Maxibinding Immunoplate (SPL, Seoul, Korea) at 4° C. for 16 h. After the addition of 10 μM FITC-tagged PTD-DBMP to each well, each compound in the chemical library or control (DMSO) was treated to the well at a final concentration of 30 μM. The fluorescence intensity was measured using a Fluorstar Optima microplate reader (BGM Lab Technologie, Ortenberg, Germany) and normalized as follows: “(‘compounds-treated group’−‘blank’)/(‘DMSO-treated control’−‘blank’)*100”.

The subject of data set [2] is β-catenin, CXXC5 and p-GSK3β (S9) in H4/SWE cells. The experiment in a line: Western blot assay in H4/SWE cells. The settings on record: FIG. 9A. The format is cell-based. As to the method: Western blot assay. H4 and H4/SWE Cells were ground with a mortar and pestle before lysis in RIPA buffer (150 mM NaCl, 10 mM Tris, pH 7.2, 0.1% SDS, 1.0% Triton X-100, 1% sodium deoxycholate, and 5 mM EDTA). Samples were separated on 6-12% SDS polyacrylamide gels and transferred onto PROTRAN nitrocellulose membranes (Schleicher and Schuell Co.). The membranes were blocked with PBS containing 5% non-fat dry skim milk and 0.07% (vol/vol) Tween 20 and incubated with antibody specific for β-catenin (1:1,000, Santa Cruz Biotechnology, Inc.), CXXC5 (1:500, Santa Cruz Biotechnology, Inc.), p-GSK3β(S9) (1:500, Santa Cruz Biotechnology, Inc.). The membranes were then incubated with horseradish peroxidase-conjugated anti-rabbit (1:5,000, Bio-Rad Laboratories) or anti-mouse (1:5000, Cell Signaling Technology) IgG secondary antibody. Protein bands were visualized with enhanced chemiluminescence (GE Healthcare) using a luminescent image analyzer, LAS-3000 (Fujifilm). Western blot bands were analyzed using Multi-Gauge V3.0 software (Fujifilm).
For orientation: In western blotting, separated proteins are transferred to a membrane and probed.

For data set [3], the system named is Wnt/β-catenin pathway. Nature of the data set: pTOPFlash reporter assay in HEK293 cells. The settings on record: HEK293 cells harboring the pTOPFlash reporter.
Data set [4] has as its system serum active GLP-1. Nature of the data set: Serum active GLP-1 ELISA in HFD-mice. The format is in vivo. The settings on record: compared with mice fed on NCD, FIG. 4A. As to the method: (§1) Blood chemistry. Total blood of mice was collected by cardiac puncture. The blood was allowed to clot for 30 min and was then centrifuged for 30 min at 3,000×g to obtain supernatant to measure active GLP-1 concentration. ELISA assay kits were used to assess serum active GLP-1 (7-36).
(§2) Animals. The generation of Cxxc5^−/− mice has been described previously. Cxxc5 heterozygous mice were intercrossed for four generations to obtain littermate wild-type and Cxxc5^−/− mice and were maintained on a C57BL/6 background. Six-week-old Cxxc5^+/+ and Cxxc5^−/− mice were fed HFD for 8 weeks. Wild-type male C57BL/6 mice (KOATECH, Seoul, Korea) were fed HFD consisting of 60% calories from fat (Research Diet, D12492) for 8 weeks. To validate that the insulin resistance mouse model was successfully established, fasting glucose levels were assessed with a One Touch Ultra glucometer (LifeScan). Subsequently, each HFD-fed mouse with a fasting glucose level higher than 16.7 mmol/L was orally administered A3334 (25 mg kg^−1), sitagliptin (50 mg kg^−1), or metformin (100 mg kg^−1) each day for 5 days at weeks 8 and 12. After the removal of the drugs, mice were maintained for 3 weeks on the HFD. To monitor pancreas regeneration, six-week-old Cxxc5^+/+ and Cxxc5^−/− mice were fed an HFD as above. […]
On the technique in general: In an ELISA, binding on a coated surface is turned into a signal by an enzyme label.

The subject of data set [5] is β-catenin in H4/SWE cells. Nature of the data set: Immunocytochemical analysis of β-catenin in H4/SWE cells. It is filed as cell-based. The settings on record: FIG. 9B. As to the method:
Immunocytochemical analysis. H4 or H4/SWE cells treated with each compound were washed with PBS and fixed in 4% (wt/vol) paraformaldehyde (PFA) in PBS for 15 min at room temperature. The cells were then washed with PBS and permeabilized with 0.1% (vol/vol) Triton X-100 in PBS for 15 min. After washing with PBS, the cells were incubated with 10% bovine serum albumin (BSA) in PBS for 30 min and then with antibodies specific for β-catenin (1:100; BD) overnight at 4° C. The cells were washed in PBS and incubated with Alexa Fluor 488—conjugated IgG secondary antibody (1:400; Molecular Probes) at room temperature for 1 h. Cell nuclei were counterstained with DAPI for 10 min and the stained samples were examined under a LSM510 META microscope.

Data set [6] relates to secreted human amyloid β-42 in H4/SWE cells. The experiment in a line: Human Aβ42 ELISA assay in H4/SWE cells. The format is cell-based. The settings on record: 24 h, FIG. 10. As for the experimental part:
Human Aβ42 ELISA assay. H4 or H4/SWE cells were cultured in Dulbecco's Modified Eagle's Medium (DMEM, Gibco) containing 10% fetal bovine serum (FBS) and grown to confluence in a 5% CO2 and 95% air humidified atmosphere. The cells were seeded in 6-well plate in DMEM supplemented with 10% FBS and allowed to adhere overnight. The cells were treated with each compound (1˜20 uM) for 24 h and collected in 1 ml of medium. The samples were treated with protease inhibitor cocktail (PIC) to avoid the degradation of Amyloid β by protease and centrifuged at 3000 rpm for 3 min. Experiments were performed according to the guidance of Human Aβ42 ELISA Kit protocol (Invitrogen). The amount of secreted Amyloid β was normalized by measuring total protein concentration.

Data set [7] relates to serum active GLP-1. Nature of the data set: Serum active GLP-1 in NASH mouse models (STZ-induced, MCD-induced). It is filed as in vivo, mice. The settings on record: FIG. 6A-6B. As to the method: FIG. 6A. Graph illustrating the serum active GLP-1 levels in NCD-mice (“Chow”) and RFD-fed, STZ-induced NASH mice that were treated with vehicle, A3334, A3051, selonsertib, and ocaliva.
FIG. 6B. Graph illustrating the serum active GLP-1 levels in NCD-mice (“Chow”) and RFD-fed, methionine-choline deficient diet (MCD)-induced NASH mice that were treated with vehicle, A3334, A3051, selonsertib, ocaliva (“OCA”), and A3486.
as §1

In data set [8] the test system is GLP-1 and other Wnt/β-catenin signaling target genes (Tcf712, Axin2, Dvl1, Wisp1, Fosl1). The experiment in a line: qPCR of GLP-1 and other Wnt/β-catenin signaling target genes in epiWAT of HFD-mice. It is filed as in vivo. The settings on record: phenotypes as observed in HFD-fed Cxxc5−/− mice, FIG. 2C. As to the method:
Quantitative real-time polymerase chain reaction (PCR). Total RNA was extracted from ground tissue powder using TRIzol reagent (Invitrogen) according to the manufacturer's instructions. Reverse transcription was performed with M-MLV reverse transcriptase (Invitrogen) using 2 μg of total RNA. Synthesized cDNA was diluted to a concentration of 100 ng/μl. Quantitative PCR analyses were performed in the Rotor-gene Q real-time PCR cycler (Qiagen) using SYBR green reagent (Qiagen) with conditions of 95° C. for 10 min followed by 40 cycles at 95° C. for 5 s and 60° C. for 15 s. Relative quantification of mRNA levels was estimated using the comparative Ct method (ΔΔCt). Glp-1 mRNA values were normalized with respect to GAPDH.
Animals. The generation of Cxxc5^−/− mice has been described previously. Cxxc5 heterozygous mice were intercrossed for four generations to obtain littermate wild-type and Cxxc5^−/− mice and were maintained on a C57BL/6 background. Six-week-old Cxxc5^+/+ and Cxxc5^−/− mice were fed HFD for 8 weeks. Wild-type male C57BL/6 mice (KOATECH, Seoul, Korea) were fed HFD consisting of 60% calories from fat (Research Diet, D12492) for 8 weeks. To validate that the insulin resistance mouse model was successfully established, fasting glucose levels were assessed with a One Touch Ultra glucometer (LifeScan). […]
A general note: Real-time PCR tracks product formation cycle by cycle.

Data set [9] concerns serum active GLP-1. The experiment in a line: Serum active GLP-1 ELISA in HFD-fed, STZ-induced diabetes mice. It is filed as in vivo. As for the experimental part:
as §1, §2

With `COc1ccc(C2CC(C(F)(F)F)n3ncc(C(=O)O)c3N2)cc1OC` (stereo not drawn) [Compound 2], the “CXXC5-DVL inhibitory activity (%)” value in [1] is reported as 90.63%. For `Cc1cc(C)c2c(O)nc(SCC(=O)c3ccc(O)c(O)c3)nc2n1` [Compound 3], in [1], the “CXXC5-DVL inhibitory activity (%)” value stood at 88.19%. On to `COC(=O)C1=C(C)N/C(=C/c2cc(C)n(-c3ccccc3F)c2C)C1=O` [Compound 4], for which, in data set [1], the “CXXC5-DVL inhibitory activity (%)” value was determined as 87.58%. On the same count and under the same terms, next, `O=C(O)C1Sc2[nH]c(=O)sc2C2c3cc(Br)cc(Br)c3OC(=O)C12` (stereo not drawn) [Compound 5]: 90.48%; `CCN(CC)S(=O)(=O)c1ccc(OC)c(Nc2cc(-c3ccccc3)nc(C)n2)c1` [Compound 6]: 58.24%. Turning to `COc1ccc(C2CC(=O)C3=C(C2)Nc2onc(C)c2C3c2ccc(O)c(O)c2)cc1OC` (stereo not drawn) [Compound 7], the “CXXC5-DVL inhibitory activity (%)” value in [1] is 90.87%. Take `O=C1Nc2cc(Br)ccc2/C1=C1/Nc2ccccc2/C1=N\O` [Compound 8, 6-Bromoindirubin-3′-oxime, reference compound]: in data set [2], the “level of β-catenin (western blot)” value is “restored” and the “p-GSK3β (S9) (western blot)” value was “increased”. In addition, the “activation of Wnt/β-catenin pathway (reporter assay)” value in data set [3] is reported as “showed effectiveness”.

Regarding `Br.CN1CCc2cc(O)cc3c2[C@H]1Cc1ccc(O)c(O)c1-3` [Compound 9], in data set [1], the “CXXC5-DVL inhibitory activity (%)” value worked out at 89.41%. The same measure, in the same setting: as for `NC(Cc1cc(O)c(O)cc1O)C(=O)O` (stereo not drawn) [Compound 10], the figure is 90.32%. On the same count and under the same terms, next, `O=c1cc(O)cc(/C=C/c2ccc(O)c(O)c2)o1` [Compound 11]: 90.05%. Turning to `O=C1Nc2ccccc2/C1=C1/Nc2ccccc2/C1=N\O` [Compound 12, Indirubin-3′-oxime, reference compound], in data set [2], the “level of β-catenin (western blot)” value was “restored” and the “p-GSK3β (S9) (western blot)” value is “increased”. Also, the “CXXC5-DVL inhibitory activity (%)” value in data set [1] worked out at 89%. Moreover, the “activation of Wnt/β-catenin pathway (reporter assay)” value in data set [3] was “showed effectiveness”. `O=c1c(O)c(-c2cc(O)c(O)c(O)c2)oc2cc(O)cc(O)c12` [Compound 13]: in [1], the “CXXC5-DVL inhibitory activity (%)” value is 85.22%. Still for that read-out and setting: next, `CC(N)(Cc1ccc(O)c(O)c1)C(=O)O` (stereo not drawn) [Compound 14]: 85.22%; `O=c1c(O)c(-c2ccc(O)cc2O)oc2cc(O)cc(O)c12` [Compound 15]: 85.41%. On the same count and under the same terms, as for `CN(C)c1ccc(O)c2c1C[C@H]1C[C@H]3[C@H](N(C)C)C(O)=C(C(N)=O)C(=O)[C@@]3(O)C(O)=C1C2=O.Cl` [Compound 16], the figure is 87.9%; as for `Oc1cc(O)cc(/C=C/c2ccc(O)c(O)c2)c1` [Compound 17], 85.25%; as for `Cl.O=C(OCCN1CCOCC1)C1(c2ccccc2)CCCCC1` [Compound 18], 86.81%.

Regarding `COc1ccc2c(c1)/C(=C1/Nc3ccccc3/C1=N\O)C(=O)N2` [Compound A3334, 5-Methoxyindirubin-3′-oxime], the “serum active GLP-1 levels” value in data set [4] is reported as “restored”. In data set [2], the “level of CXXC5 (western blot)” value was “decreased”, the “level of β-catenin (western blot)” value is listed as “restored” and the “p-GSK3β (S9) (western blot)” value is on record as “increased”. Moreover, the “nuclear translocation of β-catenin” value in data set [5] is on record as “increased”. In addition, the “secretion of Aβ-42” value in data set [6] is on record as “inhibited”. Moreover, the “active GLP-1 expression in blood serum” value in data set [7] was “significantly rescued (increased)”. The “relative expression levels of GLP-1 and other Wnt/β-catenin signaling target genes in epiWAT” value in data set [8] was “restored the phenotypes”. The “serum active GLP-1 levels” value in data set [9] (STZ-induced diabetic HFD-mice, compared with mice fed on NCD, FIG. 4B) is reported as “restored”. In data set [9] (compared to the effect of sitagliptin (positive control)), the “active GLP-1 expression in blood serum compared to the sitagliptin treatment” value is “significantly rescued (increased)”. In the case of `O=C1Nc2ccccc2/C1=C1/Nc2ccccc2C1=O` [Indirubin, reference compound], in data set [2], the “level of β-catenin (western blot)” value was “restored” and the “p-GSK3β (S9) (western blot)” value is recorded as “increased”. As for `Cc1cc(F)c(C(=O)Nc2cccc(-c3nncn3C(C)C)n2)cc1-n1cnc(C2CC2)c1` [selonsertib, reference compound], the “active GLP-1 expression in blood serum” value in data set [7] is “did not have any effect”. In the case of `N[C@@H](CC(=O)N1CCn2c(nnc2C(F)(F)F)C1)Cc1cc(F)c(F)cc1F` [sitagliptin, reference compound], the “relative expression levels of GLP-1 and other Wnt/β-catenin signaling target genes in epiWAT” value in [8] is recorded as “did not”.

These data come from patent publication US12303490B2, “Compositions and methods for suppressing and/or treating neurodegenerative diseases and/or a clinical condition thereof” (CK Regeon Inc., priority 2019, dated 2025).
